Among the data in ChEMBL document CHEMBL5137113, “Identification of Nitric Oxide-Donating Ripasudil Derivatives with Intraocular Pressure Lowering and Retinal Ganglion Cell Protection Activities” (J Med Chem, 2022) are Activity and IC50 values, retold here.

Data set [1] has as its system HTM. Briefly: Induction of reversible F-actin depolymerization in HTM cells assessed as irregular arrangement of fiber bundles at 10 uM incubated for 1 hr and further incubated for 4 hrs in drug free medium by rhodamine phalloidin staining based confocal scanning microscopic analysis. The note with it: Homo sapiens. The data set is classed as cell-based.
In data set [2] the test system is HTM. As to the kind of experiment: Induction of NO release in HTM cells assessed as increase in positive area by DAF-FM DA dye based flow cytometry analysis. The data set is classed as functional, cell-based. The note with it: Homo sapiens.
Data set [3] has as its system HTM. As to the kind of experiment: Induction of NO release in HTM cells assessed as increase in fluorescence intensity by DAF-FM DA dye based flow cytometry analysis. The data set is classed as functional, cell-based. Particulars: Homo sapiens. In general terms: In flow cytometry, cells or beads pass a laser one at a time.
Data set [4] deals with Rho-associated protein kinase 2 (Homo sapiens, UniProt O75116). As to the kind of experiment: Inhibition of ROCK2 (unknown origin) using biotin as substrate incubated for 1 hr by HTRF assay.
Data set [5] has as its system HTM. As to the kind of experiment: Downregulation of phosphorylated MLC expression in HTM cells at 10 uM incubated for 1 hr by Western blotting analysis. The data set is classed as functional, cell-based. The note with it: Homo sapiens. (Immunoblotting shows a protein as a band on a membrane.)
The target in data set [6] is Rho-associated protein kinase 1 (Homo sapiens, UniProt Q13464). As to the kind of experiment: Inhibition of ROCK1 (unknown origin) using biotin as substrate incubated for 1 hr by HTRF assay. (Time-resolved FRET reads energy transfer from a long-lived donor to a nearby acceptor.)
The test system of data set [7] is HTM. As to the kind of experiment: Effect on MLC expression in HTM cells assessed as reduction in phosphorylated MLC/MLC ratio at 10 uM incubated for 1 hr by densitometry analysis. In kind it is functional, cell-based. The note with it: Homo sapiens.
In data set [8] the test system is HTM. Briefly: Effect of compound on intracellular cGMP concentration in HTM cells assessed as increase in cGMP level at 10 uM incubated for 24 hrs by ELISA. The data set is classed as functional, cell-based. The note with it: Homo sapiens.
Data set [9] deals with Mus musculus. Briefly: Antiglaucoma activity in microspheres induced chronic ocular hypertension C57BL/6J mouse model assessed as reduction in intraocular pressure at 0.2% solution administered via topical instillation for three times per day and measured at 1 to 6 hrs post instillation by ophthalmotonometer. The data set is classed as functional, organism-based. The note with it: route top, time 1-6 hrs.

A short description of data set [10]: Ocular toxicity in C57BL/6J mouse assessed as effect on conjunctival hyperemia at 0.2% solution administered via topical instillation and measured at 1 to 4 hrs post instillation. The note with it: in vivo, topical_or_ocular, time 1-4 hrs, route top.
The test system of data set [11] is HTM. Briefly: Inhibtion of mitochondrial respiration in HTM cells assessed as oxygen consumption rate by measuring decrease in basal respiration at 10 uM incubated for 1 hr by Seahorse XF24 extracellular flux analyzer. The data set is classed as functional, cell-based. The note with it: Homo sapiens.
Data set [12] deals with HTM. As to the kind of experiment: Inhibtion of mitochondrial respiration in HTM cells assessed as oxygen consumption rate by measuring decrease in ATP production at 10 uM incubated for 1 hr by Seahorse XF24 extracellular flux analyzer. In kind it is functional, cell-based. Particulars: Homo sapiens.
In data set [13] the test system is Mus musculus. Briefly: Antiglaucoma activity in microspheres induced chronic ocular hypertension C57BL/6J mouse model assessed as increase in number of RGCs in retina at 0.26% solution administered via topical instillation and measured after 10 days by immunostaining based confocal microscopic analysis. The note with it: route top, time 10.0 day. The data set is classed as functional, organism-based.

The subject of data set [14] is Mus musculus. Briefly: Antiglaucoma activity in microspheres induced chronic ocular hypertension C57BL/6J mouse model assessed as reduction in contrast sensitivity threshold at 0.26% solution administered via topical instillation and measured after 10 days by optokinetic reflex test. The data set is classed as functional, organism-based. Particulars: route top, time 10.0 day.

Data set [15] concerns HTM. As to the kind of experiment: Inhibtion of mitochondrial respiration in HTM cells assessed as oxygen consumption rate by measuring decrease in coupling efficiency at 10 uM incubated for 1 hr by Seahorse XF24 extracellular flux analyzer. In kind it is functional, cell-based. Particulars: Homo sapiens.
For data set [16], the system named is HTM. As to the kind of experiment: Inhibtion of mitochondrial respiration in HTM cells assessed as oxygen consumption rate by measuring decrease in proton leak at 10 uM incubated for 1 hr by Seahorse XF24 extracellular flux analyzer. In kind it is functional, cell-based. Particulars: Homo sapiens.
The test system of data set [17] is HTM. As to the kind of experiment: Inhibtion of mitochondrial respiration in HTM cells assessed as repression of oxygen consumption rate at 10 uM incubated for 1 hr by Seahorse XF24 extracellular flux analyzer. The data set is classed as functional, cell-based. Particulars: Homo sapiens.
The subject of data set [18] is Mus musculus. As to the kind of experiment: Antiglaucoma activity in microspheres induced chronic ocular hypertension C57BL/6J mouse model assessed as reduction in intraocular pressure at 0.26% solution administered via topical instillation for three times per day and measured at 1 to 6 hrs post instillation by ophthalmotonometer. The data set is classed as functional, organism-based. The note with it: route top, time 1-6 hrs.

The subject of data set [19] is Mus musculus. Briefly: Antiglaucoma activity in microspheres induced chronic ocular hypertension C57BL/6J mouse model assessed as increase in visual acuity under maximum contrast condition at 0.26% solution administered via topical instillation and measured after 10 days by optokinetic reflex test. The note with it: route top, time 10.0 day. The data set is classed as functional, organism-based.

The test system of data set [20] is HTM. As to the kind of experiment: Inhibtion of mitochondrial respiration in HTM cells assessed as oxygen consumption rate by measuring decrease in maximal respiration at 10 uM incubated for 1 hr by Seahorse XF24 extracellular flux analyzer. In kind it is functional, cell-based. Particulars: Homo sapiens.
A short description of data set [21]: Ocular toxicity in C57BL/6J mouse assessed as effect on conjunctival hyperemia at 0.07% solution administered via topical instillation and measured at 1 to 4 hrs post instillation in presence of ripasudil. Particulars: in vivo, topical_or_ocular, time 1-4 hrs, route top.
Data set [22] has as its system Mus musculus. As to the kind of experiment: Antiglaucoma activity in microspheres induced chronic ocular hypertension C57BL/6J mouse model assessed as reduction in intraocular pressure at 0.07% solution administered via topical instillation for three times per day and measured at 1 to 6 hrs post instillation in presence of ripasudil by ophthalmotonometer. The data set is classed as functional, organism-based. The note with it: route top, time 1-6 hrs.

The nature of data set [23]: Ocular toxicity in C57BL/6J mouse assessed as effect on conjunctival hyperemia at 0.26% solution administered via topical instillation and measured at 1 to 4 hrs post instillation. The note with it: in vivo, topical_or_ocular, time 1-4 hrs, route top.
A short description of data set [24]: Ocular toxicity in New Zealand white albino rabbit assessed as effect on ocular irritation at 0.579% solution administered via topical instillation and measured at 1 to 4 hrs post instillation by draize's test. The arrangement: species or system Oryctolagus cuniculus. The note with it: in vivo, topical_or_ocular, time 1-4 hrs, route top.

Active and inactive are the calls of the source.

Usually IC50 stands for the concentration needed to halve the response being measured.

Rho-associated protein kinase 1, sequence (Q13464 whole entry): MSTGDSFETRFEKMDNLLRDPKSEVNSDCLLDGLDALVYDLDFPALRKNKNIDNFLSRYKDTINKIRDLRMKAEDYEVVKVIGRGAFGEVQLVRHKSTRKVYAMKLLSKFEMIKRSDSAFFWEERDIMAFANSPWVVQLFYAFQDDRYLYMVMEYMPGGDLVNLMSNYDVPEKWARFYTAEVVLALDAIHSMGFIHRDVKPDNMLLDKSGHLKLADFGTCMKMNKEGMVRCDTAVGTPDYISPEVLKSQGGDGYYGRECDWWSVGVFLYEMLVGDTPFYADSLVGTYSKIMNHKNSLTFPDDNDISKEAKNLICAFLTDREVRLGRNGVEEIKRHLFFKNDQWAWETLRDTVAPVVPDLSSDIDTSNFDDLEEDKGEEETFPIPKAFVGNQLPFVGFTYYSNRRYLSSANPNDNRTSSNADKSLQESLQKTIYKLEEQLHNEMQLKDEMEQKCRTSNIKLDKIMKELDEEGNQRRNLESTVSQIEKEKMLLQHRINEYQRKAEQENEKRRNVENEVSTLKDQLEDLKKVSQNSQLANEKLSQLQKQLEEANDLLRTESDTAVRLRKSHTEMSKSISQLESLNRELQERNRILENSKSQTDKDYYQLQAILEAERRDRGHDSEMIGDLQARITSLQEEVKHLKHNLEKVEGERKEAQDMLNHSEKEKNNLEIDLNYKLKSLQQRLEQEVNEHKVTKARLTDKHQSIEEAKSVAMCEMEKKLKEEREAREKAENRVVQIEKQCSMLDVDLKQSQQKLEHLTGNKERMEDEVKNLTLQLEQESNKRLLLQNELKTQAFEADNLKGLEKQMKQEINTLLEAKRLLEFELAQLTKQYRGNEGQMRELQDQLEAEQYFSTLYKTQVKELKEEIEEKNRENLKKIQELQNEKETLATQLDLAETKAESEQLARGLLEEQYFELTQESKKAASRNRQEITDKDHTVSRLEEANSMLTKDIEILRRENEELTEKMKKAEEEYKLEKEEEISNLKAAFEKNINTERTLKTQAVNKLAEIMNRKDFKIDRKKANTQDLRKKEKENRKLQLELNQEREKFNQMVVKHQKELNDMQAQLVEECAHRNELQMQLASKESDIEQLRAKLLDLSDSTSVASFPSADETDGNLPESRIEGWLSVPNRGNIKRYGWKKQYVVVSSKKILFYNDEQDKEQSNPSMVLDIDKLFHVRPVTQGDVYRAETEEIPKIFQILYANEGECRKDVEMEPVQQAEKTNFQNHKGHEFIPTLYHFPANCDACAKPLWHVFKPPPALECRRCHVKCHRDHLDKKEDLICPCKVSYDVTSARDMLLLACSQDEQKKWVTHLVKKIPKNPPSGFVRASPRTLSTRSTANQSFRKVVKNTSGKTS
Rho-associated protein kinase 2, sequence (O75116 whole entry): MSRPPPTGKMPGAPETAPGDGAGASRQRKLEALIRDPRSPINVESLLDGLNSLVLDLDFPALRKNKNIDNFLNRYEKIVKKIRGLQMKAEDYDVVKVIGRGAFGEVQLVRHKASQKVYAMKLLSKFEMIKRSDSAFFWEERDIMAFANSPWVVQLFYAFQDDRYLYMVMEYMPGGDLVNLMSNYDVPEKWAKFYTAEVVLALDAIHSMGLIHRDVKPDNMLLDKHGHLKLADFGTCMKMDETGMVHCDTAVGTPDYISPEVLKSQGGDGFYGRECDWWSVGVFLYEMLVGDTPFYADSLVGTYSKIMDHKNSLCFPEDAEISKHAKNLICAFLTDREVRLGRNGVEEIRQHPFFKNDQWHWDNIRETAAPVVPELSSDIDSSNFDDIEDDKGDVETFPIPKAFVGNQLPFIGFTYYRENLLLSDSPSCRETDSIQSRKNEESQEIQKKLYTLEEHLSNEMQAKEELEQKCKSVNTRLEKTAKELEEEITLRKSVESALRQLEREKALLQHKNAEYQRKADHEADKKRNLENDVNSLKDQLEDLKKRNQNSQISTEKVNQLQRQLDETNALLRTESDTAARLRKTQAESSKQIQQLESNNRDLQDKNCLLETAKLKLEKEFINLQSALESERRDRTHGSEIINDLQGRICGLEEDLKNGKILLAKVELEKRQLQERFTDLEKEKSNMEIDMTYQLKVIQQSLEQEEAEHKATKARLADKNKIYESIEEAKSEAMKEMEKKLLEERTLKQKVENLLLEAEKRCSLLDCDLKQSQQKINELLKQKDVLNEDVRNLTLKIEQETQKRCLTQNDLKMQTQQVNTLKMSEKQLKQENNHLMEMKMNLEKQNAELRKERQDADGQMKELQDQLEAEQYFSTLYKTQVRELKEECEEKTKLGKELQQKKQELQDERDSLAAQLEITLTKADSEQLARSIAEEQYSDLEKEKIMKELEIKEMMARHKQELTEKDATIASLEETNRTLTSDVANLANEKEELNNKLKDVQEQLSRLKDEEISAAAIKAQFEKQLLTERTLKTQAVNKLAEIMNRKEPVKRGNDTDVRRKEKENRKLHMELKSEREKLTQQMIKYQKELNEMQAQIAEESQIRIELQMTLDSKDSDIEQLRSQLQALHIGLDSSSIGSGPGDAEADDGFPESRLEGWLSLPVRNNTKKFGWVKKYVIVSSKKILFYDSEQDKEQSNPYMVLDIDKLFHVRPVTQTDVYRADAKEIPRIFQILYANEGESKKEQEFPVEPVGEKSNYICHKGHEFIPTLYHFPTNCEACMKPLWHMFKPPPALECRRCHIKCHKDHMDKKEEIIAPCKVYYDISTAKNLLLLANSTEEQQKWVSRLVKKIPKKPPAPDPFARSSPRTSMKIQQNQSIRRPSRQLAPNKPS

As for `C[C@H]1CN(C(=O)O[C@@H]2CO[C@H]3[C@@H]2OC[C@@H]3O[N+](=O)[O-])CCCN1S(=O)(=O)c1cccc2cncc(F)c12`, the outcome with HTM [1], in the data set on HTM [2], in the data set on HTM [3], with HTM [5], with HTM [7] and in the data set on HTM [8] was Active. The IC50 in data set [4] came out at 19.5 nM; in data set [6], 53.6 nM.
For `C[C@H]1CN(C(=O)OCCCCO[N+](=O)[O-])CCCN1S(=O)(=O)c1cccc2cncc(F)c12` [listing 1 of 2 here], the IC50 in [4] was 47.4 nM; in [6], 58.3 nM.
As to `C[C@H]1CN(C(=O)OCCCO[N+](=O)[O-])CCCN1S(=O)(=O)c1cccc2cncc(F)c12`, the result in the data set on HTM [1], in the data set on HTM [2], in the data set with HTM [3], with HTM [5], in the data set with HTM [7] and in the data set with HTM [8] was Active. In addition, the IC50 in [4] was determined as 25.1 nM; in [6], 104 nM.
`C[C@H]1CN(C(=O)OCCCCCO[N+](=O)[O-])CCCN1S(=O)(=O)c1cccc2cncc(F)c12`: the outcome with HTM [1], with HTM [2], in the data set with HTM [3], in the data set with HTM [5], in the data set with HTM [7] and with HTM [8] was Active. The IC50 in data set [4] is 25.2 nM; in data set [6] it was 44.6 nM.
Regarding `C[C@H]1CNCCCN1S(=O)(=O)c1cccc2cncc(F)c12.Cl.O.O` [RIPASUDIL HYDROCHLORIDE DIHYDRATE], the result in the data set with HTM [1], in the data set with HTM [5], in the data set with HTM [7], in the data set with Mus musculus [9], in the data set with HTM [11] and in the data set with HTM [12] was Active. The IC50 in [4] came to 21.4 nM. Besides, the Activity result in data set [10] is recorded as “Non-Toxic”.
For `C[C@H]1CN(C(=O)OCCCCO[N+](=O)[O-])CCCN1S(=O)(=O)c1cccc2cncc(F)c12` [listing 2 of 2 here], the result with HTM [1], in the data set on Mus musculus [13], with HTM [2], in the data set on HTM [3], with Mus musculus [14] and in the data set with HTM [5] was Active. The result in the data set with HTM [15], with HTM [16], in the data set on HTM [7], in the data set with HTM [17], in the data set on Mus musculus [18] and with Mus musculus [19] was Active. Moreover, the outcome with HTM [11], in the data set with HTM [8], with HTM [12] and with HTM [20] was Active.
`C[C@H]1CN(C(=O)OCCO[N+](=O)[O-])CCCN1S(=O)(=O)c1cccc2cncc(F)c12`: the outcome in the data set on HTM [1], with HTM [2], with HTM [3], in the data set with HTM [5], with HTM [7] and in the data set with HTM [8] was Active. Moreover, the figures for the IC50 in data set [4] and in data set [6] were 58.4 nM and 47.3 nM, respectively.
For the compound `O=[N+]([O-])OCCCCO`, the Activity result in data set [21] is recorded as “Non-Toxic”. Also, the result with Mus musculus [22] was Active.
Consider `C[C@H]1CN(C(=O)OCCCCO[N+](=O)[O-])CCCN1S(=O)(=O)c1cccc2cncc(F)c12.Cl`, for which the IC50 came to 16.6 nM in data set [4] and 34.2 nM in data set [6]. For the same compound, the Activity entry in data set [23] and in data set [24] was “Non-Toxic” each time.
With `CCCCOC(=O)N1CCCN(S(=O)(=O)c2cccc3cncc(F)c23)[C@@H](C)C1`, the result with HTM [17], in the data set with HTM [11], with HTM [12] and in the data set on HTM [20] was Active.
